{
  "source": "the kinase profiling compilation of Christmann-Franck et al. (2016)",
  "assay_in_all_cases": "SelectScreen, TR FRET",
  "key": {"PI4KB (human)": {"molecular_target": "PI4KB (human) (UniProt Q9UBF8)", "sequence (Q9UBF8 whole entry, looked up)": "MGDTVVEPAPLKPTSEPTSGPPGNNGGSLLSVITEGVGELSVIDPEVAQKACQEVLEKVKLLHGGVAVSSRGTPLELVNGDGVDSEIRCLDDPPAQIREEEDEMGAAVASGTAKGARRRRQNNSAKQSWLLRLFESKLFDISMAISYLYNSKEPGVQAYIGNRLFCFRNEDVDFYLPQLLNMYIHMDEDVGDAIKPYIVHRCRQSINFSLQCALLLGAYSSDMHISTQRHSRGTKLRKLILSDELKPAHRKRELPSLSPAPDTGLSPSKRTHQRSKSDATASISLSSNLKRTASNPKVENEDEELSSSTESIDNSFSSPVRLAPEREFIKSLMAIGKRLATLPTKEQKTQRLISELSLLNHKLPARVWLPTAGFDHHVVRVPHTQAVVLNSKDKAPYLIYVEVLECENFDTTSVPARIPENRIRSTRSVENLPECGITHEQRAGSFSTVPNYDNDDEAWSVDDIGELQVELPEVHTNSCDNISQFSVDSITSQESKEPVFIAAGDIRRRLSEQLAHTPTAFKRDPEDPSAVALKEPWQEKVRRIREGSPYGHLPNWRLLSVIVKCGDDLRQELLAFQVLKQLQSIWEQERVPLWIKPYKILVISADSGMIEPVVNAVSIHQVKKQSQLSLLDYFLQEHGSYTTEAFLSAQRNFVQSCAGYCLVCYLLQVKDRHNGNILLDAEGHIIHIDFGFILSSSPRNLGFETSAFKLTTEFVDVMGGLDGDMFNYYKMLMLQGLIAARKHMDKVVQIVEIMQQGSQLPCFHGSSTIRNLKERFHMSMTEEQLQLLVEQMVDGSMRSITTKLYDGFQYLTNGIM"}, "MTOR (human)": {"molecular_target": "MTOR (human) (UniProt P42345)"}, "PIK3C2B (human)": {"molecular_target": "PIK3C2B (human) (UniProt O00750)", "sequence (O00750 whole entry, looked up)": "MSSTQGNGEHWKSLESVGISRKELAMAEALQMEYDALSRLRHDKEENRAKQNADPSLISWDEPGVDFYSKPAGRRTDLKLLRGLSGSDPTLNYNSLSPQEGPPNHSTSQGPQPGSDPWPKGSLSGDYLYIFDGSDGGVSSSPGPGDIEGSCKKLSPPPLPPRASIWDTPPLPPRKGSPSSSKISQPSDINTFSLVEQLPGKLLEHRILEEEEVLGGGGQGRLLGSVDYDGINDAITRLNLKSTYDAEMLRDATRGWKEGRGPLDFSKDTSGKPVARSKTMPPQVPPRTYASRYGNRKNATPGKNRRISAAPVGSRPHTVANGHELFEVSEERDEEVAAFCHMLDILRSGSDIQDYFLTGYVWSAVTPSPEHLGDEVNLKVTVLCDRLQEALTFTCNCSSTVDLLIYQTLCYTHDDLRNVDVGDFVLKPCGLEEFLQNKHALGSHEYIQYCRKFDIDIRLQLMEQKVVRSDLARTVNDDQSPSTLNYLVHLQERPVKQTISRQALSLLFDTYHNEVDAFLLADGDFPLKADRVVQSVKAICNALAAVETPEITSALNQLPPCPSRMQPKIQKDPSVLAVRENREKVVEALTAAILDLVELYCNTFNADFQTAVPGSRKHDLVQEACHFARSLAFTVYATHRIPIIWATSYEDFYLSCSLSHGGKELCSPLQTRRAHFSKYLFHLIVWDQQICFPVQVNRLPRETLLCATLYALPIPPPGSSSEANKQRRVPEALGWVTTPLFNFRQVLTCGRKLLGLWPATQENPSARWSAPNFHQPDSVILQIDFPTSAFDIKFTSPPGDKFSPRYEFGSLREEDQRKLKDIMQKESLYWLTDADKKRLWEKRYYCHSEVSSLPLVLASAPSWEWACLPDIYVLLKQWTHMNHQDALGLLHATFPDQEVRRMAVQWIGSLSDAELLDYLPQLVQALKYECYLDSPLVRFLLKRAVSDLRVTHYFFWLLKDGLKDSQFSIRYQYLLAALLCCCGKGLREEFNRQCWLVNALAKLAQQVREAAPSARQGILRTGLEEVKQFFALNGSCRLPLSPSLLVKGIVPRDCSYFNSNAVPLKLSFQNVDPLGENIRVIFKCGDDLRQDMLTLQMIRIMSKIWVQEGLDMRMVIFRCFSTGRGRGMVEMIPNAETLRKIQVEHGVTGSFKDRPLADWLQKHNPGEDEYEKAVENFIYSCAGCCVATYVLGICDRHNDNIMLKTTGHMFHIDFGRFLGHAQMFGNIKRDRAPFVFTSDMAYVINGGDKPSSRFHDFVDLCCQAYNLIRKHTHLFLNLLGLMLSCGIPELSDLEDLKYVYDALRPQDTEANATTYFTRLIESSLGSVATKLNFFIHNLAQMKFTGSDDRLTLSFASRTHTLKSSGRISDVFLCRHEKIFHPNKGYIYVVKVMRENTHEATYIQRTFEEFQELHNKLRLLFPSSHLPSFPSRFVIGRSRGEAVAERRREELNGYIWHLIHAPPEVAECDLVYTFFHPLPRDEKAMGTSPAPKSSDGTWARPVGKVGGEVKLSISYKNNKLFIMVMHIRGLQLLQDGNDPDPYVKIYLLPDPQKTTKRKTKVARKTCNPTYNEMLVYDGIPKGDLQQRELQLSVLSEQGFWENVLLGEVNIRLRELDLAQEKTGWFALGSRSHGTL"}, "PIK3C2A (human)": {"molecular_target": "PIK3C2A (human) (UniProt O00443)", "sequence (O00443 whole entry, looked up)": "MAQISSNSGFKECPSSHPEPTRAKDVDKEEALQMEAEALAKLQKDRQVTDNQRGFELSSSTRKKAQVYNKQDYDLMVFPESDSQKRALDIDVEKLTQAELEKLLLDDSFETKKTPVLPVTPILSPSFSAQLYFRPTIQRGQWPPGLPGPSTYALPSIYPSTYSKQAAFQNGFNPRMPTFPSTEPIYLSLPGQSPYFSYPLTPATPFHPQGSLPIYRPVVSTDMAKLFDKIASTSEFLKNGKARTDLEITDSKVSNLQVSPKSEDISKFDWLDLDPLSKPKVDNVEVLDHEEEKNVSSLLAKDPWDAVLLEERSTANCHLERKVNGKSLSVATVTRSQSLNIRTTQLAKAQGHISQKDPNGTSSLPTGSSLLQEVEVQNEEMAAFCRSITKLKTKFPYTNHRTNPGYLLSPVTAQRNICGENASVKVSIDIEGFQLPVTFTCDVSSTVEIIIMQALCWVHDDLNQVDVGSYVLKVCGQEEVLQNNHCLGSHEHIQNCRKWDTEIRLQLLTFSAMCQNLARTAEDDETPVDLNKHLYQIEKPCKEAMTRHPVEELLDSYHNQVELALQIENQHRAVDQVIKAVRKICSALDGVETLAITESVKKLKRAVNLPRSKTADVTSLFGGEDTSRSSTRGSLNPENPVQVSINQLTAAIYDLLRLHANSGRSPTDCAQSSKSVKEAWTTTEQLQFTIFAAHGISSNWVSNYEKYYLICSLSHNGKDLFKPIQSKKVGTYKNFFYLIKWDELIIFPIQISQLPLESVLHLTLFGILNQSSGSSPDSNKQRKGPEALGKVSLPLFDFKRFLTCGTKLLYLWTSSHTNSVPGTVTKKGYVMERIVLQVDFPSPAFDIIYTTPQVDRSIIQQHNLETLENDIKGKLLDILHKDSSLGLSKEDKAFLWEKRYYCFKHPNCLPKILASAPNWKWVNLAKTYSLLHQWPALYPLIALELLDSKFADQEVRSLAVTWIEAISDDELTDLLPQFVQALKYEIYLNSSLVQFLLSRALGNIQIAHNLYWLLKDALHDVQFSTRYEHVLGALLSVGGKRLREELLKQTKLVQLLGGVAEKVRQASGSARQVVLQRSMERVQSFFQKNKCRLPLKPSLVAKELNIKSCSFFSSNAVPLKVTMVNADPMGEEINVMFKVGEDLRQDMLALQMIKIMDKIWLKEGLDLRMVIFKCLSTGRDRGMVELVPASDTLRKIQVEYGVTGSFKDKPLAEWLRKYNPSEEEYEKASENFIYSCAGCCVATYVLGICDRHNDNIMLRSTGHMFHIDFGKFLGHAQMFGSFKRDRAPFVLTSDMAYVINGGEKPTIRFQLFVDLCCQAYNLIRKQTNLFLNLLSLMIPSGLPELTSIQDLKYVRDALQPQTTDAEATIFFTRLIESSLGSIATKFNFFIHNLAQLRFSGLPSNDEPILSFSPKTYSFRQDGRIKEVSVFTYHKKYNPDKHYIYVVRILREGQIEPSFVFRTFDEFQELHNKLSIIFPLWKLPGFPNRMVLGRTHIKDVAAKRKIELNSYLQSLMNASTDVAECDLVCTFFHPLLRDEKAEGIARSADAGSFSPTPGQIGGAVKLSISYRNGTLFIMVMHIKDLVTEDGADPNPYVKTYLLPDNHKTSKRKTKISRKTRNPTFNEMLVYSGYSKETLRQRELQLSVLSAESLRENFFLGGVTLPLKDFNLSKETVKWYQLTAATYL"}},
  "data": [
    {"smiles": "Cc1cc([C@@H](C)Nc2ccccc2C(=O)O)c2nc(N3CCOCC3)cc(=O)n2c1", "values": [
      {"measurement": "IC50", "setting": "PI4KB (human)", "value": "> 10000", "unit": "nM"},
      {"measurement": "IC50", "setting": "MTOR (human)", "value": 3930, "unit": "nM"},
      {"measurement": "IC50", "setting": "PIK3C2B (human)", "value": 54.1, "unit": "nM"},
      {"measurement": "IC50", "setting": "PIK3C2A (human)", "value": "> 1000", "unit": "nM"}
    ]}
  ]
}
